Where a SMILES comes first, the peptide text is derived from it. Bridges are numbered along the chain shown (N, C = ends).

This note sets out measurements from article PMC6685951, “Migration of Bacteriocins Across Gastrointestinal Epithelial and Vascular Endothelial Cells, as Determined Using In Vitro Simulations” (Scientific Reports, 2019).

A short description of this data set: Plasma stability assay (loss of antimicrobial activity). It is filed as in vitro ADME, human. Conditions: 37 °C, 3 days, agar well diffusion vs L. monocytogenes EGDe, zone diameter (ImageJ). As to the method:
Human blood was collected in tubes with potassium and EDTA as anticoagulant, centrifuged at 500 × g (10 min, 25 °C) and the plasma collected. Different plasma concentrations (0%, 40% and 80%, v/v) were prepared by diluting with sterile ultrapure water. Nisin A, plantaricin 423 and bacST4SA, each suspended in sterile ultrapure water, were added to the plasma to final concentrations of 25 µM, 50 µM and 100 µM, sterile ultrapure water was used as control. Incubation was at 37 °C for 3 days and bacteriocin activity was tested using the agar well diffusion assay. Listeria monocytogenes EGDe was used as target organism. Digital images of the plates were taken after incubation and activity quantified by measuring the diameter of the zones using ImageJ software (version 1.5; https://imagej.nih.gov/ij/).
In general terms: A growth-free zone around the sample is the usual read-out of agar diffusion tests.

With `CC(C)C[C@@H]1NC(=O)[C@H](Cc2c[nH]cn2)NC(=O)[C@H](CO)NC(=O)[C@H](C(C)C)NC(=O)[C@H](CO)NC(=O)[C@@H](NC(=O)[C@H](CO)NC(=O)[C@H](Cc2ccccc2)NC(=O)[C@H](C)NC(=O)[C@H](CCC(N)=O)NC(=O)CNC(=O)[C@H](Cc2c[nH]c3ccccc23)NC(=O)[C@H](CC(N)=O)NC(=O)[C@@H](NC(=O)[C@H](CO)NC(=O)[C@@H]2CSSC[C@H](NC(=O)[C@@H](NC(=O)[C@@H](NC(=O)CNC(=O)[C@H](CC(N)=O)NC(=O)CNC(=O)[C@H](Cc3ccc(O)cc3)NC(=O)[C@H](Cc3ccc(O)cc3)NC(=O)[C@@H](N)CCCCN)C(C)C)[C@@H](C)O)C(=O)NCC(=O)N[C@@H](CCCCN)C(=O)N[C@@H](Cc3c[nH]cn3)C(=O)N[C@@H](CO)C(=O)N2)C(C)C)CSSC[C@@H](C(=O)O)NC(=O)[C@H](CCCCN)NC(=O)CNC(=O)[C@H](Cc2c[nH]cn2)NC(=O)CNC(=O)[C@H](Cc2ccccc2)NC(=O)[C@H](CC(N)=O)NC(=O)[C@H](C)NC1=O` [plantaricin 423] (H-KYYGNGVTCGKHSCSVNWGQAFSCSVSHLANFGHGKC-OH; disulfide 9-14, 24-37; N-terminus and C-terminus assumed), the “decrease in antimicrobial activity” value reads like this: (40% (v/v) human EDTA plasma in ultrapure water, 25 µM peptide) 40%; (40% (v/v) human EDTA plasma in ultrapure water, 50 µM peptide) 30%; (40% (v/v) human EDTA plasma in ultrapure water, 100 µM peptide) 17%; (80% (v/v) human EDTA plasma in ultrapure water, 25 µM peptide) 60%; (80% (v/v) human EDTA plasma in ultrapure water, 50 µM peptide) 39%; (80% (v/v) human EDTA plasma in ultrapure water, 100 µM peptide) 29%.
